Experimental findings from patent publication US20080161288A1, “COMPOUNDS” (Pfizer Inc., priority 2006, published 2008) are described below.

Experiment [1] deals with T1, bovine beta-2 adrenoceptor (Bos taurus, UniProt Q28044).
T1 construct: expressed in transfected cells; host or cells: CHO cells
In words: cAMP assay in CHO cells transfected with the bovine beta-2 adrenoceptor. It counts as cell-based. The settings on record: cAMP (DiscoveRx Hit Hunter cAMP II) in CHO cells transfected with bovine beta-2 adrenoceptor, 30 minutes with compound, 0.5 mM IBMX. How it is done:
(§1) CHO cells transfected with the bovine or porcine beta-2 adrenceptors were maintained in culture in DMEM/HAMS F12+10% FBS+2 mM glutamine+500 μg/ml geneticin (for the porcine receptor the medium was supplement with 1.5 mM HEPES) at 37° C. with a 5% CO2 atmosphere.
(§2) Cells were plated into 96 well viewplates in medium and incubated overnight at 37° C. with a 5% CO2 atmosphere. The cells were pre-incubated with 0.5 mM IBMX in PBS for 30 minutes prior to incubation with increasing concentrations of experimental compound (5×10^−12 to 10^−5 M) for 30 minutes at 37° C. with a 5% CO2 atmosphere. At the end of the incubation time the compound was removed and the cells assayed for cAMP using the DiscoveRx Hit Hunter cAMP II™ assay kit.
(§3) Duplicate samples were run for each experimental compound and the data generated was analysed using EC50 analysis software in Graphpad Prism.
(cAMP levels reflect the balance of adenylyl cyclase and phosphodiesterase activity.)

Experiment [2] has as its target T2, porcine beta-2 adrenoceptor (Sus scrofa, UniProt Q28997).
T2 construct: expressed in transfected cells; host or cells: CHO cells
In words: cAMP assay in CHO cells transfected with the porcine beta-2 adrenoceptor. The settings on record: cAMP (DiscoveRx Hit Hunter cAMP II) in CHO cells transfected with porcine beta-2 adrenoceptor, 30 minutes with compound, 0.5 mM IBMX. It counts as cell-based. The protocol:
as §1, §2, §3

Structures are written as SMILES.

T1 sequence (Q28044 whole entry): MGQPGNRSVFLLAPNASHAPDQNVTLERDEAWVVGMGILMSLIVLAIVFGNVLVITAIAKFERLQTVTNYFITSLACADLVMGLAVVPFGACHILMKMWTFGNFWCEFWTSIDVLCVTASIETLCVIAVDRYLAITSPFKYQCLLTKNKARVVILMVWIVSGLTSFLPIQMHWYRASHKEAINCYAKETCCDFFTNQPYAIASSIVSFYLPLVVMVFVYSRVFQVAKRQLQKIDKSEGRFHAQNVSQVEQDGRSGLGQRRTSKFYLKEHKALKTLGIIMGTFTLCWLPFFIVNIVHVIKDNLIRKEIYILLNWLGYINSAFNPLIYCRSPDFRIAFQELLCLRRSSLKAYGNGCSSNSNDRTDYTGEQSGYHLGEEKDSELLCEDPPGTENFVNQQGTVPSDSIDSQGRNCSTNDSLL
T2 sequence (Q28997 whole entry): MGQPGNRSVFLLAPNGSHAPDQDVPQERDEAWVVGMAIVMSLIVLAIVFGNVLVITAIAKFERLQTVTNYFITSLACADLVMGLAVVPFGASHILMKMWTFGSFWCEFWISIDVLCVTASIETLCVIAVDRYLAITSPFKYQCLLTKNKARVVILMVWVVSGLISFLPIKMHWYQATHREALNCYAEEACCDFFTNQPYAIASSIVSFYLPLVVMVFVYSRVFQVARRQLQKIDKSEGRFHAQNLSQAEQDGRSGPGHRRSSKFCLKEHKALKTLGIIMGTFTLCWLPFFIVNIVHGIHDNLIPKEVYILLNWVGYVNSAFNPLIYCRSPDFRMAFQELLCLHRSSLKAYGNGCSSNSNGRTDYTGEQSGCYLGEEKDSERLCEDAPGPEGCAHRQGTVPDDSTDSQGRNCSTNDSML

Turning to `COC(=O)c1ccc(CC[C@@H](C)N[C@@H]2CCn3c(=O)[nH]c4cccc(c43)[C@H]2O)cc1` (single isomer, unassigned) [Example 70, Methyl 4-[3-{[7-hydroxy-2-oxo-1,2,4,5,6,7-hexahydroimidazo[4,5,1-jk][1]benzazepin-6-yl]amino}butyl]benzoate], the concentration giving a half-maximal response (EC50) (in general, the concentration that produces a half-maximal response) in experiment [1] amounted to 8.2 nM; in experiment [2], 6.2 nM.

As to `CC(CCc1cccc(Cl)c1O)N[C@@H]1CCn2c(=O)[nH]c3cccc(c32)[C@H]1O` (single isomer, unassigned) [Example 5b, 6-{[3-(3-Chloro-2-hydroxyphenyl)-1-methylpropyl]amino}-7-hydroxy-4,5,6,7-tetrahydroimidazo[4,5,1-jk][1]benzazepin-2(1H)-one], the values for the EC50 in experiment [1] and in experiment [2] were 1.6 nM and 2.9 nM, respectively.

On to `CC(CCc1cc(F)c(F)cc1O)N[C@@H]1CCn2c(=O)[nH]c3cccc(c32)[C@H]1O` (mixture of isomers) [Example 11a, 6-{[3-(4,5-Difluoro-2-hydroxyphenyl)-1-methylpropyl]amino}-7-hydroxy-4,5,6,7-tetrahydroimidazo[4,5,1-jk][1]benzazepin-2(1H)-one], for which the EC50 is 1.21 nM in experiment [1] and 1.15 nM in experiment [2].

On to `CC(C=Cc1cccc(O)c1)NC1CCn2c(=O)[nH]c3cccc(c32)C1O` (centres unmarked) [Example 41, 7-Hydroxy-6-{[3-(3-hydroxyphenyl)-1-methylprop-2-en-1-yl]amino}-4,5,6,7-tetrahydroimidazo[4,5,1-jk][1]benzazepin-2(1H)-one], for which the EC50 in experiment [1] came to 13.3 nM; in experiment [2], 6.6 nM.

As to `CC(CCc1ccccc1)N[C@@H]1CCn2c(=O)[nH]c3cccc(c32)[C@H]1O` (single isomer, unassigned) [Example 9b, 7-Hydroxy-6-[(1-methyl-3-phenylpropyl)amino]-4,5,6,7-tetrahydroimidazo[4,5,1-jk][1]benzazepin-2(1H)-one], the EC50 in experiment [1] is 179 nM; in experiment [2], 34.3 nM.

Regarding `CC(CCc1ccccc1O)N[C@@H]1CCn2c(=O)[nH]c3cccc(c32)[C@H]1O` (mixture of isomers) [Example 6b, 7-Hydroxy-6-{[3-(2-hydroxyphenyl)-1-methylpropyl]amino}-4,5,6,7-tetrahydroimidazo[4,5,1-jk][1]benzazepin-2(1H)-one], the concentration for a half-maximal effect (EC50) in experiment [1] was determined as 2 nM; in experiment [2], 1.4 nM.

Turning to `CC(CCc1cc(Br)cc(Br)c1O)N[C@@H]1CCn2c(=O)[nH]c3cccc(c32)[C@H]1O` (mixture of isomers) [Example 47, 6-{[3-(3,5-Dibromo-2-hydroxyphenyl)-1-methylpropyl]amino}-7-hydroxy-4,5,6,7-tetrahydroimidazo[4,5,1-jk][1]benzazepin-2(1H)-one], the EC50 in experiment [1] was more than 200 nM; in experiment [2] it was more than 300 nM.

Regarding `CC(CCc1cccc(NS(C)(=O)=O)c1)NC1CCn2c(=O)[nH]c3cccc(c32)C1O` (single isomer, unassigned) [Example 65], the figures for the EC50 in experiment [1] and in experiment [2] were 74.7 nM and 31.5 nM, respectively.

`CC(CCc1ccccc1)N[C@@H]1CCn2c(=O)[nH]c3cccc(c32)[C@H]1O` (single isomer, unassigned) [Example 9e, 7-Hydroxy-6-[(1-methyl-3-phenylpropyl)amino]-4,5,6,7-tetrahydroimidazo[4,5,1-jk][1]benzazepin-2(1H)-one]: the EC50 in experiment [1] turned out to be 7 nM; in experiment [2], 2.3 nM.

Take `CC(CCc1cccc(F)c1O)N[C@@H]1CCn2c(=O)[nH]c3cccc(c32)[C@H]1O` (mixture of isomers) [Example 28b, 6-{[3-(3-Fluoro-2-hydroxyphenyl)-1-methylpropyl]amino}-7-hydroxy-4,5,6,7-tetrahydroimidazo[4,5,1-jk][1]benzazepin-2(1H)-one]: the half-maximal effective concentration (EC50) in experiment [1] is 55 nM; in experiment [2], 80 nM.

On to `CC(CCc1cccc(O)c1)NC1CCn2c(=O)[nH]c3cccc(c32)C1O` (single isomer, unassigned) [Example 39, 7-Hydroxy-6-{[3-(3-hydroxyphenyl)-1-methylpropyl]amino}-4,5,6,7-tetrahydroimidazo[4,5,1-jk][1]benzazepin-2(1H)-one], for which the EC50 was found to be 7.5 nM in experiment [1] and 5.6 nM in experiment [2].

As to `CC(CCc1ccc2c(c1)OCO2)NC1CCn2c(=O)[nH]c3cccc(c32)C1O` (centres unmarked) [Example 12, 6-{[3-(1,3-Benzodioxol-5-yl)-1-methylpropyl]amino}-7-hydroxy-4,5,6,7-tetrahydroimidazo[4,5,1-jk][1]benzazepin-2(1H)-one], the 50% effective concentration (EC50) in experiment [1] was determined as 23.1 nM; in experiment [2] it was 11.7 nM.

With `CC(CCc1ccccc1O)N[C@@H]1CCn2c(=O)[nH]c3cccc(c32)[C@H]1O` (single isomer, unassigned) [Example 6d, 7-Hydroxy-6-{[3-(2-hydroxyphenyl)-1-methylpropyl]amino}-4,5,6,7-tetrahydroimidazo[4,5,1-jk][1]benzazepin-2(1H)-one], the half-maximal effective concentration (EC50) was 315 nM in experiment [1] and 410 nM in experiment [2].

Turning to `COc1cccc(CCC(C)N[C@@H]2CCn3c(=O)[nH]c4cccc(c43)[C@H]2O)c1O` (single isomer, unassigned) [Example 8a, 7-hydroxy-6-{[3-(2-hydroxy-3-methoxyphenyl)-1-methylpropyl]amino}-4,5,6,7-tetrahydroimidazo[4,5,1-jk][1]benzazepin-2(1H)-one], the EC50 in experiment [1] was determined as 200 nM; in experiment [2] it was 172 nM.

Consider `CC(CCc1ccc(C(=O)NC2CC2)cc1)NC1CCn2c(=O)[nH]c3cccc(c32)C1O` (single isomer, unassigned) [Example 64, N-Cyclopropyl-4-[3-{[7-hydroxy-2-oxo-1,2,4,5,6,7-hexahydroimidazo[4,5,1-jk][1]benzazepin-6-yl]amino}butyl]benzamide], for which the half-maximal effective concentration (EC50) in experiment [1] is 46.4 nM; in experiment [2], 42.9 nM.

`CC(CC(C)(C)c1ccccc1)N[C@@H]1CCn2c(=O)[nH]c3cccc(c32)[C@H]1O` (single isomer, unassigned) [Example 14a, 6-[(1,3-Dimethyl-3-phenylbutyl)amino]-7-hydroxy-4,5,6,7-tetrahydroimidazo[4,5,1-jk][1]benzazepin-2(1H)-one]: the results for the EC50 in experiment [1] and in experiment [2] were 428 nM and 385 nM, respectively.

On to `C[C@H](CCc1ccc(N)cc1)N[C@@H]1CCn2c(=O)[nH]c3cccc(c32)[C@H]1O` (single isomer, unassigned) [Example 45, 6-{[3-(4-Aminophenyl)-1-methylpropyl]amino}-7-hydroxy-4,5,6,7-tetrahydroimidazo[4,5,1-jk][1]benzazepin-2(1H)-one], for which the EC50 in experiment [1] is 30.3 nM; in experiment [2], 21 nM.

As to `CC(CCc1c(Cl)ccc(O)c1Cl)NC1CCn2c(=O)[nH]c3cccc(c32)C1O` (single isomer, unassigned) [Example 55], the figures for the EC50 in experiment [1] and in experiment [2] were 4.3 nM and 2.7 nM, respectively.

For the molecule `CC(CCc1ccc(NC(=O)C(F)(F)F)cc1)NC1CCn2c(=O)[nH]c3cccc(c32)C1O` (single isomer, unassigned) [Example 59], the EC50 in experiment [1] was found to be 10.4 nM; in experiment [2], 12.1 nM.

For the molecule `CC(/C=C/c1ccccc1F)N[C@@H]1CCn2c(=O)[nH]c3cccc(c32)[C@H]1O` (single isomer, unassigned) [Example 40a, 6-{[3-(2-Fluorophenyl)-1-methylprop-2-en-1-yl]amino}-7-hydroxy-4,5,6,7-tetrahydroimidazo[4,5,1-jk][1]benzazepin-2(1H)-one], the values for the EC50 in experiment [1] and in experiment [2] were 242 nM and 65.1 nM, respectively.

`CC(CCc1ccccc1NC(=O)C(F)(F)F)N[C@@H]1CCn2c(=O)[nH]c3cccc(c32)[C@H]1O` (single isomer, unassigned) [Example 51, 2,2,2-Trifluoro-N-{2-[3-{[7-hydroxy-2-oxo-1,2,4,5,6,7-hexahydroimidazo[4,5,1-jk][1]benzazepin-6-yl]amino}butyl]phenyl}acetamide]: the 50% effective concentration (EC50) in experiment [1] turned out to be 3.6 nM; in experiment [2], 11 nM.

As for `CC(CCc1cc(Cl)ccc1O)N[C@@H]1CCn2c(=O)[nH]c3cccc(c32)[C@H]1O` (single isomer, unassigned) [Example 19a, 6-{[3(5-Chloro-2-hydroxyphenyl)-1-methylpropyl]amino}-7-hydroxy-4,5,6,7-tetrahydroimidazo[4,5,1-jk][1]benzazepin-2(1H)-one], the EC50 in experiment [1] is 0.6 nM; in experiment [2] it was 0.9 nM.

Consider `COc1cccc(CCC(C)N[C@@H]2CCn3c(=O)[nH]c4cccc(c43)[C@H]2O)c1O` (single isomer, unassigned) [Example 8b, 7-hydroxy-6-{[3-(2-hydroxy-3-methoxyphenyl)-1-methylpropyl]amino}-4,5,6,7-tetrahydroimidazo[4,5,1-jk][1]benzazepin-2(1H)-one], for which the half-maximal effective concentration (EC50) in experiment [1] came to 0.7 nM; in experiment [2] it was 1.1 nM.

`CC(CCc1ccc(O)c(F)c1)NC1CCn2c(=O)[nH]c3cccc(c32)C1O` (single isomer, unassigned) [Example 58, 6-{[3-(3-Fluoro-4-hydroxyphenyl)-1-methylpropyl]amino}-7-hydroxy-4,5,6,7-tetrahydroimidazo[4,5,1-jk][1]benzazepin-2(1H)-one]: the concentration giving a half-maximal response (EC50) in experiment [1] turned out to be 1.1 nM; in experiment [2], 2.4 nM.

Consider `CC(CCc1ccc(OCC2CC2)cc1)N[C@@H]1CCn2c(=O)[nH]c3cccc(c32)[C@H]1O` (mixture of isomers) [Example 1c, 6-({3-[4-(Cyclopropylmethoxy)phenyl]-1-methylpropyl}amino)-7-hydroxy-4,5,6,7-tetrahydroimidazo[4,5,1-jk][1]benzazepin-2(1H)-one], for which the figures for the EC50 in experiment [1] and in experiment [2] were 12.2 nM and 4.8 nM, respectively.
